Measured values taken from paper PMC9124820, “In vitro evaluation of fenfluramine and norfenfluramine as victims of drug interactions” (Pharmacology Research & Perspectives, 2022).

Key:
[1] = clobazam, and valproate, healthy subjects, cited from earlier work
other rCYP450s = assay: Reaction phenotyping, other rCYP450s of the panel (not given); type: in vitro ADME, human
Method: For FFA and nFFA reaction phenotyping experiments, LC‐MS/MS experiments were performed using an API 4000 QTRAP or QTRAP 5500 mass spectrometer (SCIEX) with positive electrospray ionization. Chromatography was performed using an Atlantis dC18 analytical column (100 × 2.1 mm, 5 µm; Waters Corporation). Mobile phases were 0.2% v/v formic acid in water and 0.2% v/v formic acid in methanol. FFA and nFFA were eluted at a flow rate of 0.5 mL/min with a linear gradient of 40%−95% methanol from 0.20−2.1 min. The mass transitions monitored were 232.0>109.0 for FFA, 204.0>159.0 for nFFA, 348.0>330.0 for 1’‐hydroxymidazolam‐d4 internal standard (FFA reaction phenotyping), and 262.0>244.0 for hydroxybupropion‐d6 internal standard (nFFA reaction phenotyping). Analyst Instrument Control and Data Processing software (v. 1.6.1) was used for collecting and integrating data (SCIEX). Calibration curves ranging from 1.25 µM−0.01 µM were used to quantify nFFA. Relative quantitation was used to approximate the amount of FFA test material used.
Methods used to evaluate the role of CYP450s in the metabolism of FFA have been described.[22], [23], [24] To determine whether FFA and nFFA were substrates for specific CYP450s, either FFA (1 and 10 μM) or nFFA (0.1 and 1 μM) was incubated via a Tecan Liquid Handling System (Tecan Life Sciences, Männedorf, Switzerland) in duplicate with 25 pmol of rCYP1A2, rCYP2B6, rCYP2C8, rCYP2C9, rCYP2C19, rCYP2D6, or rCYP3A4, and incubation at 37°C. The 200‐μL incubation mixtures contained potassium phosphate buffer (50 mM, pH 7.4), MgCl2 (3 mM), and EDTA (1 mM, pH 7.4), and an NADPH‐generating system. Incubations of FFA with control bactosomes and membranes containing human NADPH‐CYP450 oxidoreductase, but not human CYP450 (reductase control), served as negative controls. FFA or nFFA was added to the incubation mixtures in water (1% v/v). […] Supernatant fractions were analyzed by LC‐MS/MS.

SMILES: CC(N)Cc1cccc(C(F)(F)F)c1.Cl (centres unmarked) [nFFA, 1‐(3‐(trifluoromethyl)phenyl)propan‐2‐amine hydrochloride]
- effect on Cmax and AUC0‐t of nFFA ([1]; FFA co‐administered with stiripentol): reduced
- contribution to nFFA metabolism (other rCYP450s; nFFA 0.1 μM and 1 μM, enzymes other than rCYP1A2, rCYP2B6, rCYP2C19, rCYP2D6): smaller contributions

SMILES: CCNC(C)Cc1cccc(C(F)(F)F)c1 (racemic) [FFA, (RS)‐ethyl (α‐methyl‐3‐trifluoromethylphenethyl)amine]
- effect on Cmax, AUC0‐t, and AUC0‐∞ of FFA ([1]; co‐administered with stiripentol): increasing
- FFA loss (other rCYP450s; 1 μM FFA, rCYP450s other than rCYP2D6, rCYP2C19, rCYP1A2): < 10%
- substrate loss (other rCYP450s; 10 μM FFA, rCYP450s other than rCYP2D6, rCYP2C19, rCYP1A2, rCYP2B6): < 15%
